Reference: patent US10227331B2 (priority 2015, dated 2019)

Assays:
[1] = tested on: Serratia marcescens expressing IMP-1 (CL5741); assay type: cell-based; settings: with imipenem 1 μg/ml, 95% inhibition of bacterial growth; for Serratia marcescens MITC95: IMP-1 (CL5741)
In short: (§1)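 Colonies from overnight 35 °C blood-agar cultures were suspended in saline, diluted 1:100 into 1.1× CAMHB and exposed to test compound with or without imipenem at 1 μg/ml. After 22–24 h at 35 °C, absorbance was read to find the concentration restoring imipenem susceptibility.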

[2] = tested on: Escherichia coli expressing NDM-1 (CLB30005, CLB30016); assay type: cell-based; settings: with imipenem 1 μg/ml, 95% inhibition of bacterial growth; for Escherichia coli MITC95: NDM-1 (CLB30016)
In short: as §1

[3] = tested on: Klebsiella pneumoniae expressing VIM-1 (IHMA599644); assay type: cell-based; settings: with imipenem 1 μg/ml, 95% inhibition of bacterial growth; for Klebsiella pneumoniae MITC95: VIM-1 (IHMA599644)
In short: as §1

VIM-1 = VIM-1 (Pseudomonas aeruginosa (strain ATCC 15692 / DSM 22644 / CIP 104116 / JCM 14847 / LMG 12228 / 1C / PRS 101 / PAO1), UniProt A0A0F7KYQ8); assay: biochemical; settings: CCF2-FA substrate, 2 hours at 25° C
In short: (§2)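 Two-hour, 25° C incubation of enzyme with inhibitor and CCF2-FA (7-hydroxycoumarin–cephalosporin–fluorescein). Fluorescence read-out; IC50 via 4-parameter fit.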

[4] = tested on: P. aeruginosa expressing IMP-1, efflux− (MB9799); assay: Efflux: concentration of MBL inhibitor which restores susceptibility to imipenem; assay type: cell-based, Pseudomonas aeruginosa; settings: imipenem at 2 μg/mL, in the presence of a class A, C, D serine β-lactamase inhibitor closely related to relebactam
From the text: (§3) The strain background is Pseudomonas aeruginosa PAO1.

[5] = tested on: P. aeruginosa expressing IMP-1, efflux+ (MB9798); assay type: cell-based, Pseudomonas aeruginosa; settings: for P. aeruginosa expressing IMP-1, efflux+ (MB9798) MITC95: imipenem at 2 μg/mL, in the presence of a class A, C, D serine β-lactamase inhibitor closely related to relebactam; for Efflux ratio: ratio MITC95 PA_9798/MITC95 PA_9799
From the text: as §3

IMP-1 = IMP-1 (Serratia marcescens, UniProt P52699); assay: biochemical; assay type: biochemical; settings: CCF2-FA substrate, 2 hours at 25° C; read-out: IMP-1 IC50
In short: as §2

NDM-1 = NDM-1 (Klebsiella pneumoniae, UniProt C7C422); assay: biochemical; assay type: biochemical; settings: CCF2-FA substrate, 2 hours at 25° C; read-out: NDM-1 IC50
In short: as §2

IMP-1, sequence (P52699 whole entry, looked up, species assumed): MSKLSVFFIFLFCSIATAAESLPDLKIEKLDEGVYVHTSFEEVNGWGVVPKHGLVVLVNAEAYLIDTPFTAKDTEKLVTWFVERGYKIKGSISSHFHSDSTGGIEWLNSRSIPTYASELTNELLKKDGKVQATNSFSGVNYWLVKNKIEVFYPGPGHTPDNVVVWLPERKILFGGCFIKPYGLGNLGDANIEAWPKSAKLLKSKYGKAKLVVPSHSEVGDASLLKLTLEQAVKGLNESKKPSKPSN
NDM-1, sequence (C7C422 whole entry, looked up, species assumed): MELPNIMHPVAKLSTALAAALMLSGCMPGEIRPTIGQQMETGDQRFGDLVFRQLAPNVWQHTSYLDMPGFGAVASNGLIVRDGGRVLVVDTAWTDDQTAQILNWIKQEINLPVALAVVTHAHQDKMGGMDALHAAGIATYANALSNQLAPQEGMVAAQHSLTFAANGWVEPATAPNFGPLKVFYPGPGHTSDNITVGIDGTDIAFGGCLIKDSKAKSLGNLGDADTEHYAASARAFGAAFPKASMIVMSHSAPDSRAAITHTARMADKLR

SMILES	Serratia marcescens expressing IMP-1 (CL5741) MITC95 [1] [µM]	Escherichia coli expressing NDM-1 (CLB30016) MITC95 [2] [µM]	Klebsiella pneumoniae expressing VIM-1 (IHMA599644) MITC95 [3] [µM]	IC50 (VIM-1) [nM]	P. aeruginosa expressing IMP-1, efflux− (MB9799) MITC95 [4] [µM]	P. aeruginosa expressing IMP-1, efflux+ (MB9798) MITC95 [5] [µM]	Efflux ratio [5]	IC50 (IMP-1) [nM]	IC50 (NDM-1) [nM]	Serratia marcescens MITC95 [1] [µM]	Escherichia coli MITC95 [2] [µM]	Klebsiella pneumoniae MITC95 [3] [µM]
Cn1nnc2ccc(-c3ccc(S(=O)(=O)C4CNC4)c(S(N)(=O)=O)c3-c3nnn[nH]3)cc21.O=C(O)C(F)(F)F [Example 119, 3-((4-(1-methyl-1H-benzo[d][1,2,3]triazol-6-yl)-2-sulfamoyl-3-(1H-tetrazol-5-yl)phenyl)sulfonyl)azetidin-1-ium 2,2,2-trifluoroacetate]	6.25	6.25	6.25	0.506	1.563	100	63.98	5.74	1.8			
Nc1nc2ccc(-c3ccc([S+]([O-])C4CCNCC4)c(S(N)(=O)=O)c3-c3nn[nH]n3)cc2[nH]1 (stereo not drawn) [Example 12, 3-(2-amino-3H-benzo[d]imidazol-5-yl)-6-(piperidin-4-ylsulfinyl)-2-(2H-tetrazol-5-yl)benzenesulfonamide]	6.25	6.25	6.25	4.36	3.125	25	8.00	130	4.06			
Nc1nc2c(-c3ccc(S(=O)(=O)c4ccccn4)c(S(N)(=O)=O)c3-c3nnn[nH]3)cccc2s1 [Example 233, 3-(2-aminobenzo[d]thiazol-4-yl)-6-(pyridin-2-ylsulfonyl)-2-(1H-tetrazol-5-yl)benzenesulfonamide]	3.125	3.125	12.5	0.113	1.563	12.5	8.00	0.203	0.0324			
NCCS(=O)(=O)c1ccc(-c2cnc(N)c(F)c2)c(-c2nnn[nH]2)c1S(N)(=O)=O.O=C(O)C(F)(F)F [Example 168, 2-((4-(6-amino-5-fluoropyridin-3-yl)-2-sulfamoyl-3-(1H-tetrazol-5-yl)phenyl)sulfonyl)ethanaminium 2,2,2-trifluoroacetate]	3.125	1.563	6.25	0.515	1.563	6.25	4.00	2.02	2.5			
Nc1nc2c(-c3ccc(S(=O)(=O)[C@H]4CN[C@H](CO)C4)c(S(N)(=O)=O)c3-c3nn[nH]n3)cccc2[nH]1 [Example 291, 3-(2-amino-1H-benzo[d]imidazol-4-yl)-6-((3R,5S)-5-(hydroxymethyl)pyrrolidin-3-ylsulfonyl)-2-(2H-tetrazol-5-yl)benzenesulfonamide]				0.54	0.7813	0.7813	1.00	0.959	0.195	0.7813	0.7813	1.563
CS(=O)(=O)c1ccc(-c2ccc(N)nc2)c(-c2nn[nH]n2)c1S(N)(=O)=O [Example 237, 3-(6-Aminopyridin-3-yl)-6-(methylsulfonyl)-2-(2H-tetrazol-5-yl)benzenesulfonamide]	1.563	0.3906	6.25	0.754	1.563	25	15.99	0.63	5.81			
CS(=O)(=O)c1ccc([C@H]2CC[C@H](N)CC2)c(-c2nnn[nH]2)c1S(N)(=O)=O [Example 210, 3-((1r,4r)-4-aminocyclohexyl)-6-(methylsulfonyl)-2-(1H-tetrazol-5-yl) benzenesulfonamide]	1.563	3.125	3.125	0.566	0.7813	12.5	16.00	7.76	32.2			
NS(=O)(=O)c1c(S(=O)(=O)CC2CNC2)ccc([C@H]2CC[C@@H](N)CC2)c1-c1nnn[nH]1 [Example 205, 3-((1s, 4s)-4-aminocyclohexyl)-6-((azetidin-3-ylmethyl)sulfonyl)-2-(1H-tetrazol-5-yl)benzenesulfonamide]	3.125	1.563	3.125	6.64	3.125	6.25	2.00	82.5	44.6			
CS(=O)(=O)Nc1nc2c(-c3ccc(S(=O)(=O)CCN)c(S(N)(=O)=O)c3-c3nn[nH]n3)cccc2s1 [Example 83, 6-(2-aminoethylsulfonyl)-3-(2-(methylsulfonamido)benzo[d]thiazol-4-yl)-2-(2H-tetrazol-5-yl)benzenesulfonamide]	6.25	6.25	12.5	0.263	6.25	12.5	2.00	0.341	0.117			
NCCS(=O)(=O)c1ccc(-c2cnc(N)c(C(N)=O)c2)c(-c2nn[nH]n2)c1S(N)(=O)=O [Example 335, 2-Amino-5-(4-((2-aminoethyl)sulfonyl)-3-sulfamoyl-2-(2H-tetrazol-5-yl)phenyl)nicotinamide]				1.23	1.563	12.5	8.00	8.9	3.22	1.563	1.563	3.125
Nc1nc2cc(-c3ccc(S(=O)(=O)C4CNC4)c(S(N)(=O)=O)c3-c3nn[nH]n3)ccn2n1 [Example 217, 3-(2-amino-[1,2,4]triazolo[1,5-a]pyridin-7-yl)-6-(azetidin-3-ylsulfonyl)-2-(2H-tetrazol-5-yl) benzenesulfonamide]	3.125	6.25	6.25	0.313	1.563	12.5	8.00	3.81	1.49			
CC(N)CS(=O)(=O)c1ccc(-c2cccc3sc(N)nc23)c(-c2nn[nH]n2)c1S(N)(=O)=O (stereo not drawn) [Example 269, 3-(2-aminobenzo[d]thiazol-4-yl)-6-(2-aminopropylsulfonyl)-2-(2H-tetrazol-5-yl)benzenesulfonamide]				0.176	0.7813	0.7813	1.00	0.152	0.116	1.563	1.563	3.125
NCCNC(=O)c1cccc(-c2ccc(S(=O)(=O)CCN)c(S(N)(=O)=O)c2-c2nn[nH]n2)c1N [Example 378, 2-amino-N-(2-aminoethyl)-4′-((2-aminoethyl)sulfonyl)-3′-sulfamoyl-2′-(2H-tetrazol-5-yl)-[1,1′-biphenyl]-3-carboxamide]				0.544	0.7813	1.563	2.00	5.1	3.72	0.7813	0.7813	1.563
